Test results from patent publication US9333197B2, “Apoptosis signal-regulating kinase inhibitor” (Gilead Sciences, Inc., priority 2012, dated 2016).
Where two headings read alike, the source gives them in different places.

Key:
CYP3A4 = CYP3A4 (Homo sapiens (Human), UniProt P08684); assay: Cytochrome P450 inhibition IC50, CYP3A4 (midazolam and testosterone); assay type: in vitro ADME; details: for IC50: comparative table, testosterone substrate, read-out: Cyp3A4 IC50 Testesterone (TST)
[1] = Rat pharmacokinetics, 1 mg/kg IV infusion and 5.0 mg/kg PO; assay type: in vivo; details: for clearance / Vd: 1 mg/kg IV infusion; for clearance: read-out: CL in rats (converted); for Vd: read-out: Vss in rats; for bioavailability: 5.0 mg/kg PO, read-out: oral bioavailability (% F) in rats
Experimental: For IV administration the test compound was formulated in 60:40 PEG 400:water with 1 equivalent HCl at 0.5 mg/mL.
For PO (oral) administration, the test compound was formulated in 5/75/10/10 ethanol/PG/solutol/water at 2.5 mg/mL.
IV and PO dosing groups each consisted of 3 male SD rats. […] The animals were fasted overnight prior to dose administration and up to 4 hr after dosing.
For the IV infusion group, the test compound was administered by intravenous infusion over 30 minutes. The rate of infusion was adjusted according to the body weight of each animal to deliver a dose of 1 mg/kg at 2 mL/kg. For the oral dosing group, the test article was administered by oral gavage at 2 mL/kg for a dose of 5.0 mg/kg.
Serial venous blood samples (approximately 0.4 mL each) were taken at specified time points after dosing from each animal. The blood samples were collected into Vacutainer™ tubes (Becton-Disckinson Corp, New Jersey, USA) containing EDTA as the anti-coagulant and were immediately placed on wet ice pending centrifugation for plasma.
An LC/MS/MS method was used to measure the concentration of test compound in plasma.
Non-compartmental pharmacokinetic analysis was performed on the plasma concentration-time data.

Caco-2 cells = assay: Determination of CACO-2 efflux ratio / permeability; assay type: in vitro ADME; details: for CACO A→B: apical to basolateral; for CACO B→A: basolateral to apical
Experimental: (§1) Caco-2 cells were maintained in Dulbecco's Modification of Eagle's Medium (DMEM) with sodium pyruvate, Glutmax supplemented with 1% Pen/Strep, 1% NEAA and 10% fetal bovine serum in an incubator set at 37° C., 90% humidity and 5% CO2. Caco-2 cells between passage 62 and 72 were seeded at 2100 cells/well and were grown to confluence over at least 21-days on 24 well PET (polyethylene-terephthalate) plates (BD Biosciences). The receiver well contained HBSS buffer (10 mM HEPES, 15 mM Glucose with pH adjusted to pH 6.5) supplemented with 1% BSA pH adjusted to pH 7.4. After an initial equilibration with transport buffer, TEER values were read to test membrane integrity. Buffers containing test compounds were added and 100 μl of solution was taken at 1 and 2 hrs from the receiver compartment. Removed buffer was replaced with fresh buffer and a correction is applied to all calculations for the removed material. The experiment was carried out in replicate. All samples were immediately collected into 400 μl 100% acetonitrile acid to precipitate protein and stabilize test compounds. Cells were dosed on the apical or basolateral side to determine forward (A to B) and reverse (B to A) permeability. Permeability through a cell free trans-well is also determined as a measure of cellular permeability through the membrane and non-specific binding. To test for non-specific binding and compound instability percent recovery is determined. Samples were analyzed by LC/MS/MS.
(§2) Vr and Vd is the volume in the receiver and donor compartment in cm^3, respectively. A is the area of the cell monolayer (0.33 cm^2). D0 and D120 is the measured donor concentration at the beginning and end of the experiment, respectively. R120 is the receiver concentration at the end of the experiment (120 minutes).

[2] = as above; assay type: in vitro ADME; details: human, Caco-2, pH 7.4; read-out: Efflux ratio (B/A)/(A/B)
Experimental: as §1, §2

ASK1 = ASK1 (Rattus norvegicus, UniProt A0A8I6AEL0); assay: ASK1 293 cell-based assay (cellular EC50), AP-1:luciferase reporter
Chain of ASK1 (A0A8I6AEL0 1-1381): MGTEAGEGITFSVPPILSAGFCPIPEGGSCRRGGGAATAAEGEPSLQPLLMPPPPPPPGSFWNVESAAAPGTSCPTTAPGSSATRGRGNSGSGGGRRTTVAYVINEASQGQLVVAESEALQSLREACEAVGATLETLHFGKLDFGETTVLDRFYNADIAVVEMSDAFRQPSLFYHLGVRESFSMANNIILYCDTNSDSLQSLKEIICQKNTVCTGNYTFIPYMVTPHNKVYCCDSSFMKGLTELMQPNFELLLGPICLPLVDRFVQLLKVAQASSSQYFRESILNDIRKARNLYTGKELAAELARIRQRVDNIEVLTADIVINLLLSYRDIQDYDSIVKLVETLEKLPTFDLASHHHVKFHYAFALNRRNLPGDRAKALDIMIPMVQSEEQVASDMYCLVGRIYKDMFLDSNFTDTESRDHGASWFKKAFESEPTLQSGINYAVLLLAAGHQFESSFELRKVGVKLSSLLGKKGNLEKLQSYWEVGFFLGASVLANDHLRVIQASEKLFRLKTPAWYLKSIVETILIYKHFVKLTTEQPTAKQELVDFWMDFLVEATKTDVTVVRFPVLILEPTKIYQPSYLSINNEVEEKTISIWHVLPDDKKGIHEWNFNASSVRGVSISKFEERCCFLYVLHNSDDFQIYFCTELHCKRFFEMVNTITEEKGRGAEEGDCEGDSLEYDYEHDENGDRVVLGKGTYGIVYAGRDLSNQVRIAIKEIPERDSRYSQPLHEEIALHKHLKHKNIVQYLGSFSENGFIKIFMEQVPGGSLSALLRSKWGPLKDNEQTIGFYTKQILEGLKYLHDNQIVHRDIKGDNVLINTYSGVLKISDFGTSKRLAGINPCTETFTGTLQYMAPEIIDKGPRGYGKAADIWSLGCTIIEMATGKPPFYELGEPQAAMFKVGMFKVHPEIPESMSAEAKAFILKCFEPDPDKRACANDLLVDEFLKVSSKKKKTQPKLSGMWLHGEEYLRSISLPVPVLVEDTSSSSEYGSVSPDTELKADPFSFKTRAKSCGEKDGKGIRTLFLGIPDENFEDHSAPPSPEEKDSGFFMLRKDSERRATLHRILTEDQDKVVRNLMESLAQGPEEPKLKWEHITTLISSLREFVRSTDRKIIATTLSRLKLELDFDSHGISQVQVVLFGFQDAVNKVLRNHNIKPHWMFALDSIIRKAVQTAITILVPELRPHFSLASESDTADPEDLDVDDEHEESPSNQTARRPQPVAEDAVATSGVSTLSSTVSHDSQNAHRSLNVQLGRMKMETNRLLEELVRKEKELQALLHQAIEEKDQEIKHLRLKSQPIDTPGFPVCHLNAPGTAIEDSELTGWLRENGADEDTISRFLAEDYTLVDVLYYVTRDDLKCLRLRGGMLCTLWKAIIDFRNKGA
Experimental: 2. […] Promega Steady-Glo Luciferase Assay System product insert. 3. Media Required Complete Growth Medium, “CGM” DMEM (MediaTech) 10% FBS 1% PSG 100 ug/mL HygromycinB Assay Medium, “AM” DMEM (Invitrogen) 25 mM HEPES 1 mM Sodium Pyruvate 1% PSG 4. Methods Maintenance:
Count cells and dilute to 1.5×10^5 cells per mL; add adenovirus such that there are 5 infectious forming units per cell.
Prime (20 to 30 mL) and plate cells in Greiner poly-D-Lysine coated 384-well plates at 1.2×10^4 cells per well using BioTek uFill (80 uL per well).
Immediately dose plates with 0.4 uL of compound dose series (in 100% DMSO) incubate 24 hours in humidified incubator (37° C., 5% CO2).
Process plates (per manufacturer's instructions) as follows:
Remove 60 uL of AM from assay wells
Add 20 uL per well Steady-Glo Firefly substrate, let sit for 10-20 minutes at room temperature
Acquire data on a fluorescence plate reader

[3] = 3 h, 2 μM, pH 7.4
Experimental: 1 mL Teflon dialysis cells from Harvard Apparatus (Holliston, Mass., USA) were used in these experiments. […] A nominal concentration of 2 μM of compound was spiked into 1 mL of plasma or 1 mL of cell culture media. The total volume of liquid on each side of the cell was 1 mL. After 3 hours equilibration in a 37° C. water bath, samples from each side of the cell were aliquoted into the appropriate vials containing either 1 mL of human plasma (cell culture media), or buffer. Sample vials were weighed and recorded. […] Samples were vortexed and centrifuged for 15 minutes at 12000 G. 200 μL of the supernatant was removed and placed into a new 96 well plate. An additional 200 μL of 1:1 ACN:water was added. The plate was then vortexed and subjected to LC-MS analysis. The percent unbound for an analyte in plasma was calculated using the following equations % Unbound=100(Cf/Ct) where Cf and Ct are the post-dialysis buffer and plasma concentrations, respectively.

[4] = Sprague-Dawley, rat, plasma, male SD rats

Chain of CYP3A4 (P08684 whole entry, the tested form may be a part): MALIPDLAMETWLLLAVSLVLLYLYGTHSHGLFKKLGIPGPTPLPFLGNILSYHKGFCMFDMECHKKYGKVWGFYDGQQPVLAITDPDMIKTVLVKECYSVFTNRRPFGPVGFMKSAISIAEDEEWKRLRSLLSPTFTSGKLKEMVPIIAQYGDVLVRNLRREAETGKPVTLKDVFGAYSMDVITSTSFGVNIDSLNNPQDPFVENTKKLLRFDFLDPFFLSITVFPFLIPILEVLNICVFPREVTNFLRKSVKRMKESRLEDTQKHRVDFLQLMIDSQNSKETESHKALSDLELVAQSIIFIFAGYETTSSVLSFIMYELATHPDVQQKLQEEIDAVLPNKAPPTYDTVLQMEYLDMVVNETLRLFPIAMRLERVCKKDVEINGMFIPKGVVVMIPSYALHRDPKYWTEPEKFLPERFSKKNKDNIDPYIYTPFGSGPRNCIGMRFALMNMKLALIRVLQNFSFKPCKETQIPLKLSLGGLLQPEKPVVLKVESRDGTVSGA

SMILES | number of times compound of formula (I) shows an improvement over the indicated compound: Cyp3A4 IC50 (TST) (CYP3A4) | IC50 (CYP3A4) | clearance [1, 4] | Vd [1, 4] | bioavailability [1, 4] | number of times compound of formula (I) shows an improvement over the indicated compound: % F in rats ([1]; rat, in vivo) | number of times compound of formula (I) shows an improvement over the indicated compound: CL in rats ([1]; rat, in vivo) | number of times compound of formula (I) shows an improvement over the indicated compound: t½ in rats ([1]; rat, in vivo) | CACO A→B (Caco-2 cells) | CACO B→A (Caco-2 cells) | further results
CC(C)n1cnnc1-c1cccc(NC(=O)c2cccc(-n3cnc(C4CC4)c3)c2)n1 [Compound A] | 10 X | 1100 nM | 5 mL/min/kg | 0.17 L/kg | 11% | 6.8 X | 2.7 X | 8.6 X | 3.1 | 18.5 | t1/2 in rats ([1]; male SD rats): 0.59 h; number of times compound of formula (I) shows an improvement over the indicated compound: Vss in rats ([1]; rat, in vivo): 3.2 X
Cc1ccc(C(=O)Nc2cccc(-c3nncn3C3CC3)n2)cc1-n1cnc(C2CC2)c1 [Compound B] | 2.8 X | 4000 nM | 6.5 mL/min/kg | 0.54 L/kg | 50% | 1.5 X | 3.6 X | 3.9 X | 0.26 | 4 | number of times compound of formula (I) shows an improvement over the indicated compound: Cyp3A4 IC50/PBAdj.EC50 (CYP3A4): 92 X; Cyp3A4 IC50/PBAdj.EC50 (CYP3A4; ratio of Cyp3A4 inhibition and protein binding adjusted EC50): 7; half-life ([1]; Sprague-Dawley, rat, plasma, male SD rats, read-out: t1/2 in rats (converted)): 1.3 h; efflux ratio at 120 min [2]: 15.4; number of times compound of formula (I) shows an improvement over the indicated compound: EC50 (ASK1): 9 X; number of times compound of formula (I) shows an improvement over the indicated compound: PBadj EC50 (ASK1): 33 X; EC50 (ASK1; 293/AP1-Luc cells infected with adenovirus expressing kinase active ASK1, 24 hours): 18 nM; EC50 (ASK1; protein binding adjusted EC50, read-out: PBadj EC50): 563 nM
Cc1cc(F)c(C(=O)Nc2cccc(-c3nncn3C(C)C)n2)cc1-n1cnc(C2CC2)c1 [compound of formula (I), 5-(4-cyclopropyl-1H-imidazol-1-yl)-N-(6-(4-isopropyl-4H-1,2,4-triazol-3-yl)pyridin-2-yl)-2-fluoro-4-methylbenzamide] | – | – | – | – | – | – | – | – | – | – | percent unbound measured in human plasma [3]: 11.94%; Vd ([1]; rat, plasma, male SD rats): 0.55 L/kg; bioavailability ([1]; rat, plasma, male SD rats): 75%
